Experimental data published in patent US5726316A, “Pharmaceutical compositions for prevention and treatment of central nervous system disorders” (priority 1997, dated 1998).

Experiments:
[1] = target: nicotinic receptors (L-[3H]nicotine binding, rat brain membrane preparations); design: species or system rat (Sprague-Dawley); details: calculated from IC50 (Cheng et al.)
Experimental: Rats (Sprague-Dawley) were maintained on a 12 hour light/dark cycle and were allowed free access to water and food supplied by Wayne Lab Blox, Madison, Wis. Animals used in the present studies weighted 200 to 250 g. Brain membrane preparations were obtained from brain tissue of either males or females.
Rats were killed by decapitation following anesthesia with 70% CO2. Brains were removed and placed on an ice-cold platform. […] The resulting homogenate was centrifuged at 18,000×g for 20 min. and the resulting pellet was resuspended in 20 volumes of water. After 60 min. incubation at 4° C., a new pellet was collected by centrifugation at 18,000×g for 20 min. After resuspension in 10 volumes of buffer, a new final pellet was again collected by centrifugation at 18,000×g for 20 min. Prior to each centrifugation step, the suspension was incubated at 37° C. for 5 min. to promote hydrolysis of endogenous acetylcholine. The final pellet was overlayed with buffer and stoerd at -70° C. On the day of the assay, that pellet was thawed, resuspended in buffer and centrifuged at 18,000×g for 20 min. The pellet obtained was resuspended in buffer to a final concentration of approximately 5 mg protein/ml.
The binding of L-[^3 H]nicotine was measured using a 2 hr. incubation at 4° C. […] Nonspecific binding was determined by inclusion of 10 uM nonradioactive nicotine in the incubations.

[2] = system: synaptosomes from the striatal area of rat brain; experiment: Dopamine release from striatal synaptosomes; format: biochemical, rat (Sprague-Dawley); details: relative to (S)-(-)-nicotine
Experimental: Dopamine release was measured by preparing synaptosomes from the striatal area of rat brain obtained from Sprague-Dawley rats generally according to the procedures set forth by Nagy et al., J. Neurochem., Vol. 43, pp. 1114-1123 (1984). Striata from 4 rats were homogenized in 2 ml of 0.32M sucrose buffered with 5 mM HEPES (pH 7.5), using a glass-Teflon tissue grinder. The homogenate was diluted to 5 ml with additional homogenization solution and centrifuged at 1,000×g for 10 min. This procedure was repeated on the new pellet and the resulting supernatant was centrifuged at 12,000×g for 20 min. A 3 layer discontinuous Percoll gradient consisting of 16 percent, 10 percent and 7.5 percent Percoll in HEPES-buffered sucrose was made with the final pellet dispersed in the top layer. […] Using this method, 30 to 90 percent of the dopamine was taken up into the synaptosomes, as determined by scintillation counting following filtration through glass fiber filters soaked with 0.5 percent polyethyleneimine. […] After the addition of 0.2 ml of a solution containing various concentrations of ligand, the perfusate was collected into scintillation vials at 1 min. intervals and the dopamine release was quantified by scintillation counting. Peaks of radioactivity released above background were summed and the average basal release during that time was substracted from the total.

[3] = target: T1, muscle-like nicotinic receptors (human clonal line TE671/RD) (Homo sapiens, UniProt P02708+P07510+Q07001); format: cell-based; details: te671/rd cells
T1 construct: Intact cells on dishes were used for functional studies; endogenous in cells; host or cells: TE671/RD (human embryonal rhabdomyosarcoma)
T1 sequence (P02708 21-457): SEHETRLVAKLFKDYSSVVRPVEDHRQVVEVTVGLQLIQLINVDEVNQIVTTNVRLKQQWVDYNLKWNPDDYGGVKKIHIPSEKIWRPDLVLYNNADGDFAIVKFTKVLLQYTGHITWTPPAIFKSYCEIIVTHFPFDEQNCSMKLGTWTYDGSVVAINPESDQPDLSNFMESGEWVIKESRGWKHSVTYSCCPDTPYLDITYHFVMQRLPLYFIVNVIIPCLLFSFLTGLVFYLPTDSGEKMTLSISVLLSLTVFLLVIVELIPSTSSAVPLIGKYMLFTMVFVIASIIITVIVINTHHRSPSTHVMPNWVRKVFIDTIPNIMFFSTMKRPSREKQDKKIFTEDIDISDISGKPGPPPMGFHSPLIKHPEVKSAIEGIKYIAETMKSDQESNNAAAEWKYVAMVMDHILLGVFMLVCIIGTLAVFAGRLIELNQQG
T1 sequence (Q07001 22-517): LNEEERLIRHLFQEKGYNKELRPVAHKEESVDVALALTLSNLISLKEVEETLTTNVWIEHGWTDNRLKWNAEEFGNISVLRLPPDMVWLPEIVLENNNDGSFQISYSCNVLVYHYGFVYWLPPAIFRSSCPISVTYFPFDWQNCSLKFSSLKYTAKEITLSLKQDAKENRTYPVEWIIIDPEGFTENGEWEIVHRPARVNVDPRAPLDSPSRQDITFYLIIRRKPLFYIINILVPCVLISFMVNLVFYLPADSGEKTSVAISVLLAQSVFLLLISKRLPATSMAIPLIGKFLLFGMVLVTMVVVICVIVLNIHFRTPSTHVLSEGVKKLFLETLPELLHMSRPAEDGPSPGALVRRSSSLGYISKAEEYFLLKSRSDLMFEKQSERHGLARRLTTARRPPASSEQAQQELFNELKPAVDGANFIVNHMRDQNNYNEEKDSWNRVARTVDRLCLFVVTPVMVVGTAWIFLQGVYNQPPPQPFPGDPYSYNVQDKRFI
T1 sequence (P07510 23-517): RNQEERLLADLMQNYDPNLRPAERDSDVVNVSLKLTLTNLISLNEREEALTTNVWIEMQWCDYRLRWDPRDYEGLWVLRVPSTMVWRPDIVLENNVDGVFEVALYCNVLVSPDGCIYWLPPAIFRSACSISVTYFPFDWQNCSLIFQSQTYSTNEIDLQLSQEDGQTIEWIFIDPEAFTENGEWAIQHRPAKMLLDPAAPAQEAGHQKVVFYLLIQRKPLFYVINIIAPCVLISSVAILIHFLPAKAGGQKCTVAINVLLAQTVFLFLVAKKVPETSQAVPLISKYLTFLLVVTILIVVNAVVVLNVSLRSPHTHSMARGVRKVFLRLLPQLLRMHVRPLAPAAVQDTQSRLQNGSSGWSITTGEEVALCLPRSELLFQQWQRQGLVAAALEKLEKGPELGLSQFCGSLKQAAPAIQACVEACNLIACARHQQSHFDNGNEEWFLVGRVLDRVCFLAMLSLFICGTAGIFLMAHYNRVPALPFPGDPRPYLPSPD
Experimental: Dose-response curves were plotted and the concentration resulting in half maximal activation of specific ion flux through nicotinic receptors determined for human muscle and rat ganglionic preparations (EC50).
(§1) Intact cells on dishes were used for functional studies.
(§2) Specific ion efflux was determined as the difference in isotope efflux between total and non-specific efflux samples. Dose-response curves were plotted and the concentration resulting in half maximal activation of specific ion flux through nicotinic receptors determined for human muscle and rat ganglionic preparations (EC50).

[4] = target: T2, ganglionic-type neuronal nicotinic receptors (pheochromocytoma clonal line PC12) (Rattus norvegicus, UniProt P04757+P12392); format: cell-based; details: pc12 cells
T2 construct: Intact cells on dishes were used for functional studies; endogenous in cells; host or cells: PC12 (rat pheochromocytoma)
T2 sequence (P04757 26-499): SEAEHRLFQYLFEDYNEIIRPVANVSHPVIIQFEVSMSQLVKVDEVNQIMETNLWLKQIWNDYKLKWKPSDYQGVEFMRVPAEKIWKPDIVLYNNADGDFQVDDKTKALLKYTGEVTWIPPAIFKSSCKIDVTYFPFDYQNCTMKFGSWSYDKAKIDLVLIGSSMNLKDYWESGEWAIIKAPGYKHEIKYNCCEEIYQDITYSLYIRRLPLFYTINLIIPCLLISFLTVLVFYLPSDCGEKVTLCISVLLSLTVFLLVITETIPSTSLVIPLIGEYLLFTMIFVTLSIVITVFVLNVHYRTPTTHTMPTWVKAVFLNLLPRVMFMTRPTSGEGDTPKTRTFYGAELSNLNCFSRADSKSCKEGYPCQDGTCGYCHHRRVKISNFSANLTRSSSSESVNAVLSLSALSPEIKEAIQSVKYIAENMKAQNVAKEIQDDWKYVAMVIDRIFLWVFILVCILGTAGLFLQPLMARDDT
T2 sequence (P12392 21-495): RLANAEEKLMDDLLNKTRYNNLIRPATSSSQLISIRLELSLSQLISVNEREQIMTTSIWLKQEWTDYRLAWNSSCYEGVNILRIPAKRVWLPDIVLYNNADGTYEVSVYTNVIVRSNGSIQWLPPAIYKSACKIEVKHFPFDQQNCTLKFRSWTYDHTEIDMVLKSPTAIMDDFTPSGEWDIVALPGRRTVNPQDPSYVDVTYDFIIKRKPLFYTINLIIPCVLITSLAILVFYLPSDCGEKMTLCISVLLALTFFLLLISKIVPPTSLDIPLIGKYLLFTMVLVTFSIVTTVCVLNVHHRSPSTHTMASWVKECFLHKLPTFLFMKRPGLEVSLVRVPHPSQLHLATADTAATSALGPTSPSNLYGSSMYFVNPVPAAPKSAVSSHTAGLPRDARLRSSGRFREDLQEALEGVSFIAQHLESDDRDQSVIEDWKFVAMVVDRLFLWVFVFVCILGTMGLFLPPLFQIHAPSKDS
Experimental: as §1, §2

CNCCCCc1cccnc1 [Sample No. 7, N-methyl-(3-pyridinyl)-buane-1-amine]
Ki [1]: 910 nM | Dopamine Release Emax [2]: 72 % nicotine | Muscle Effect [3]: 0 % nicotine | Ganglion Effect [4]: 31 % nicotine
